Measured values from patent US10597388B2, “Pyridazinone herbicides” (FMC CORPORATION, priority 2014, dated 2020).

Key:
Experiment in all cases: Test D controlled growth environment herbicide test, pre- and postemergence
Assay type in all cases: in vivo
[1] = tested on: barley, winter (winter barley, Hordeum vulgare)
Excerpt: (§1) Seeds of plant species selected from bluegrass (annual bluegrass, Poa annua), blackgrass (Alopecurus myosuroides), Canada thistle (Cirsium arvense), canarygrass (Phalaris minor), chickweed (common chickweed, Stellaria media), geranium, cutleaf (cutleaf geranium, Geranium dissectum), galium (catchweed bedstraw, Galium aparine), bromegrass, downy (downy bromegrass, Bromus tectorum), field poppy (Papaver rhoeas), field violet (Viola arvensis), foxtail, green (green foxtail, Setaria viridis), deadnettle (henbit deadnettle, Lamium amplexicaule), ryegrass, Italian (Italian ryegrass, Lolium multiflorum), kochia (Kochia scoparia), lambsquarters (Chenopodium album), oilseed rape (Brassica napus), pigweed (Amaranthus retroflexus), chamomile (scentless chamomile, Matricaria inodora), Russian thistle (Salsola kali), speedwell (bird's-eye speedwell, Veronica persica), barley, spring (spring barley, Hordeum vulgare), wheat, spring (spring wheat, Triticum aestivum), buckwheat, wild (wild buckwheat, Polygonum convolvulus), mustard, wild (wild mustard, Sinapis arvensis), oat, wild (wild oat, Avena fatua), radish, wild (wild radish, Raphanus raphanistrum), windgrass (Apera spica-venti), barley, winter (winter barley, Hordeum vulgare), and wheat, winter (winter wheat, Triticum aestivum) were planted into a silt loam soil and treated preemergence with test chemicals formulated in a non-phytotoxic solvent mixture which included a surfactant.
(§2) At the same time, these species were planted in pots containing Redi-Earth® planting medium (Scotts Company, 14111 Scottslawn Road, Marysville, Ohio 43041) comprising spaghnum peat moss, vermiculite, wetting agent and starter nutrients and treated with postemergence applications of the test chemicals formulated in the same manner. Plants ranged in height from 2 to 18 cm (1- to 4-leaf stage). Treated plants and controls were maintained in a controlled growth environment for 14 to 21 d after which time all species were compared to controls and visually evaluated. Plant response ratings, summarized in Table D, are based on a scale of 0 to 100 where 0 is no effect and 100 is complete control. A dash (-) response means no test result.

[2] = tested on: blackgrass (Alopecurus myosuroides)
Excerpt: as §1, §2

[3] = tested on: chickweed (common chickweed, Stellaria media)
Excerpt: as §1, §2

[4] = tested on: deadnettle (henbit deadnettle, Lamium amplexicaule)
Excerpt: as §1, §2

[5] = tested on: foxtail, green (green foxtail, Setaria viridis)
Excerpt: as §1, §2

[6] = tested on: galium (catchweed bedstraw, Galium aparine)
Excerpt: as §1, §2

kochia (Kochia scoparia) = tested on: kochia (Kochia scoparia)
Excerpt: as §1, §2

[7] = tested on: lambsquarters (Chenopodium album)
Excerpt: as §1, §2

[8] = tested on: pigweed (Amaranthus retroflexus)
Excerpt: as §1, §2

[9] = tested on: ryegrass, Italian (Italian ryegrass, Lolium multiflorum)
Excerpt: as §1, §2

[10] = tested on: speedwell (bird's-eye speedwell, Veronica persica)
Excerpt: as §1, §2

[11] = tested on: wheat, winter (winter wheat, Triticum aestivum)
Excerpt: as §1, §2

[12] = tested on: windgrass (Apera spica-venti)
Excerpt: as §1, §2

[13] = Postemergence, 31 g ai/ha, scale 0 to 100 (0 no effect, 100 complete control)
[14] = Postemergence, 125 g ai/ha, visual rating on scale 0 (no effect) to 100 (complete control), 14 to 21 d
[15] = Postemergence, 250 g ai/ha, scale 0 to 100 (0 no effect, 100 complete control)
[16] = Preemergence, 62 g ai/ha, scale 0 to 100 (0 no effect, 100 complete control)
[17] = Preemergence, 125 g ai/ha, scale 0 to 100 (0 no effect, 100 complete control)
[18] = Preemergence, 250 g ai/ha, scale 0 to 100 (0 no effect, 100 complete control)
[19] = postemergence, 62 g ai/ha, scale 0 to 100, 0 no effect, 100 complete control

Cc1ccc2ccccc2c1-c1c(O)c(C)nn(C)c1=O [Compound 59]
Barley, Winter plant response rating [1, 13]: 20 | Plant response rating, Barley, Winter [1, 14]: 45 | Plant response rating, Barley, Winter [1, 15]: 60 | Plant response rating (scale of 0 to 100), Barley, Winter ([1]; Preemergence, 31 g ai/ha): 15 | Plant response rating, Barley, Winter [1, 16]: 25 | Plant response rating, Barley, Winter [1, 17]: 40 | Plant response rating, Barley, Winter [1, 18]: 45 | Plant response rating, Barley, Winter [1, 19]: 30 | Blackgrass plant response rating [2, 13]: 70 | Plant response rating, Blackgrass [2, 14]: 85 | Plant response rating, Blackgrass [2, 15]: 85 | Plant response rating (scale of 0 to 100), Blackgrass ([2]; Preemergence, 31 g ai/ha): 85 | Plant response rating, Blackgrass [2, 16]: 90 | Plant response rating, Blackgrass [2, 17]: 95 | Plant response rating, Blackgrass [2, 18]: 100 | Plant response rating, Blackgrass [2, 19]: 80 | Chickweed plant response rating [3, 13]: 100 | Plant response rating, Chickweed [3, 14]: 100 | Plant response rating, Chickweed [3, 15]: 100 | Plant response rating (scale of 0 to 100), Chickweed ([3]; Preemergence, 31 g ai/ha): 100 | Plant response rating, Chickweed [3, 16]: 100 | Plant response rating, Chickweed [3, 17]: 100 | Plant response rating, Chickweed [3, 18]: 100 | Plant response rating, Chickweed [3, 19]: 98 | Deadnettle plant response rating [4, 13]: 80 | Plant response rating, Deadnettle [4, 14]: 90 | Plant response rating, Deadnettle [4, 15]: 100 | Plant response rating (scale of 0 to 100), Deadnettle ([4]; Preemergence, 31 g ai/ha): 50 | Plant response rating, Deadnettle [4, 16]: 90 | Plant response rating, Deadnettle [4, 17]: 90 | Plant response rating, Deadnettle [4, 18]: 100 | Plant response rating, Deadnettle [4, 19]: 80 | Foxtail, Green plant response rating [5, 13]: 65 | Plant response rating, Foxtail, Green [5, 14]: 75 | Plant response rating, Foxtail, Green [5, 15]: 85 | Plant response rating (scale of 0 to 100), Foxtail, Green ([5]; Preemergence, 31 g ai/ha): 55 | Plant response rating, Foxtail, Green [5, 16]: 75 | Plant response rating, Foxtail, Green [5, 17]: 85 | Plant response rating, Foxtail, Green [5, 18]: 100 | Plant response rating, Foxtail, Green [5, 19]: 70 | Galium plant response rating [6, 13]: 100 | Plant response rating, Galium [6, 14]: 100 | Plant response rating, Galium [6, 15]: 100 | Plant response rating (scale of 0 to 100), Galium ([6]; Preemergence, 31 g ai/ha): 95 | Plant response rating, Galium [6, 16]: 95 | Plant response rating, Galium [6, 17]: 100 | Plant response rating, Galium [6, 18]: 100 | Plant response rating, Galium [6, 19]: 100 | Kochia plant response rating (kochia (Kochia scoparia); [13]): 95 | Plant response rating, Kochia (kochia (Kochia scoparia); [14]): 95 | Plant response rating, Kochia (kochia (Kochia scoparia); [15]): 100 | Plant response rating (scale of 0 to 100), Kochia (kochia (Kochia scoparia); Preemergence, 31 g ai/ha): 20 | Plant response rating, Kochia (kochia (Kochia scoparia); [16]): 60 | Plant response rating, Kochia (kochia (Kochia scoparia); [17]): 95 | Plant response rating, Kochia (kochia (Kochia scoparia); [18]): 100 | Plant response rating, Kochia (kochia (Kochia scoparia); [19]): 95 | Lambsquarters plant response rating [7, 13]: 90 | Plant response rating, Lambsquarters [7, 14]: 90 | Plant response rating, Lambsquarters [7, 15]: 95 | Plant response rating (scale of 0 to 100), Lambsquarters ([7]; Preemergence, 31 g ai/ha): 95 | Plant response rating, Lambsquarters [7, 16]: 100 | Plant response rating, Lambsquarters [7, 17]: 100 | Plant response rating, Lambsquarters [7, 18]: 100 | Plant response rating, Lambsquarters [7, 19]: 85 | Pigweed plant response rating [8, 13]: 80 | Plant response rating, Pigweed [8, 14]: 100 | Plant response rating, Pigweed [8, 15]: 100 | Plant response rating (scale of 0 to 100), Pigweed ([8]; Preemergence, 31 g ai/ha): 95 | Plant response rating, Pigweed [8, 16]: 100 | Plant response rating, Pigweed [8, 17]: 100 | Plant response rating, Pigweed [8, 18]: 100 | Plant response rating, Pigweed [8, 19]: 85 | Ryegrass, Italian plant response rating [9, 13]: 80 | Plant response rating, Ryegrass, Italian [9, 14]: 90 | Plant response rating, Ryegrass, Italian [9, 15]: 90 | Plant response rating (scale of 0 to 100), Ryegrass, Italian ([9]; Preemergence, 31 g ai/ha): 100 | Plant response rating, Ryegrass, Italian [9, 16]: 100 | Plant response rating, Ryegrass, Italian [9, 17]: 100 | Plant response rating, Ryegrass, Italian [9, 18]: 100 | Plant response rating, Ryegrass, Italian [9, 19]: 90 | Speedwell plant response rating [10, 13]: 65 | Plant response rating, Speedwell [10, 14]: 100 | Plant response rating, Speedwell [10, 15]: 100 | Plant response rating (scale of 0 to 100), Speedwell ([10]; Preemergence, 31 g ai/ha): 100 | Plant response rating, Speedwell [10, 16]: 100 | Plant response rating, Speedwell [10, 17]: 100 | Plant response rating, Speedwell [10, 18]: 100 | Plant response rating, Speedwell [10, 19]: 100 | Wheat, Winter plant response rating [11, 13]: 35 | Plant response rating, Wheat, Winter [11, 14]: 55 | Plant response rating, Wheat, Winter [11, 15]: 80 | Plant response rating (scale of 0 to 100), Wheat, Winter ([11]; Preemergence, 31 g ai/ha): 10 | Plant response rating, Wheat, Winter [11, 16]: 35 | Plant response rating, Wheat, Winter [11, 17]: 70 | Plant response rating, Wheat, Winter [11, 18]: 80 | Plant response rating, Wheat, Winter [11, 19]: 40 | Windgrass plant response rating [12, 13]: 75 | Plant response rating, Windgrass [12, 14]: 80 | Plant response rating, Windgrass [12, 15]: 85 | Plant response rating (scale of 0 to 100), Windgrass ([12]; Preemergence, 31 g ai/ha): 85 | Plant response rating, Windgrass [12, 16]: 85 | Plant response rating, Windgrass [12, 17]: 100 | Plant response rating, Windgrass [12, 18]: 100 | Plant response rating, Windgrass [12, 19]: 80
